Assay results published in patent publication US8350076B2, “Sodium channel blockers” (University of Virginia Patent Foundation, priority 2002, dated 2013).
Like-named read-outs stand apart in the source and are kept apart here. Marks after values point to notes of the source that are not given here.

Key:
[1] = system: C4-2 cells; test: Long-term growth assay (crystal violet), C4-2; assay type: cell-based, human; conditions: for growth of C4-2 cells (in words): 40 μM, 7 days with drug; for IC50: Homo sapiens, C4-2, 120 h, day 5, read-out: Day Five Effects on Cell line IC50 (μM) ± S.E.M., C4-2
Procedure: (§1) C4-2 cells were plated at cell densities established previously to reach saturation at day 7. The cells were allowed to recover overnight before a media change with the analogues (all at 40 μM) was performed. The assays were terminated at day 1, 3, 5 and 7. Media changes were performed on day 0, 2, 4 and 6 with fresh analogues added each time. The cells were then fixed with glutaraldehyde and stained with crystal violet. The dye is then eluted in Sorenson's solution and the absorbance read at 540 nm. […] These assays were repeated for DU145, PC-3 and the paired metastatic cell line PC-3M. The data were normalized to the day 7 DMSO control for each cell line to allow for direct cell:cell comparison.

[2] = system: LNCaP; test: Long-term growth assay (crystal violet), LNCaP; assay type: cell-based; conditions: Homo sapiens, 120 h, day 5, read-out: Day Five Effects on Cell line IC50 (μM) ± S.E.M., LNCaP
[3] = system: mice
[4] = system: cell growth in 2-D; test: 2-D growth assay; assay type: cell-based; conditions: molar equivalence to the phenytoin IC50
[5] = system: anchorage-independent colony formation; test: Soft agarose colony formation (SACF), 3-D growth; assay type: cell-based; conditions: for inhibition in 3-D growth (SACF) as compared to phenytoin: same concentration as 2-D
[6] = system: all PCa cell lines tested (C4-2, DU145, PC-3, PC-3M); test: Long-term growth assay, panel of PCa cell lines; assay type: cell-based, human
Procedure: as §1

[7] = system: PC-3M; test: Long-term growth assay (crystal violet), PC-3M; assay type: cell-based; conditions: Homo sapiens, 120 h, day 5, read-out: Day Five Effects on Cell line IC50 (μM) ± S.E.M., PC-3M
Procedure: as §1

[8] = system: DU-145; test: Long-term growth assay (crystal violet), DU-145; assay type: cell-based; conditions: Homo sapiens, DU-145, 120 h; day 5; read-out: Day Five Effects on Cell line IC50 (μM) ± S.E.M., DU-145
Procedure: as §1

[9] = system: PSA secretion by PCa C4-2 cells; test: PSA secretion by PCa C4-2 cells; assay type: cell-based, human; conditions: for decrease of PSA secretion on a per cell basis: 40 μM
Procedure: PSA levels are clinically important in following tumor progression and burden. Sodium channel blockers 1, 2 and 44 (at 40 μM) and phenyloin at (100 μM) were investigated for their ability to suppress PSA secretion by PCa C4-2 cells.

[10] = system: PC3; test: Long-term growth assay (crystal violet), PC3; assay type: cell-based; conditions: Homo sapiens, PC-3, 120 h; day 5; read-out: Day Five Effects on Cell line IC50 (μM) ± S.E.M., PC3
Procedure: as §1

[11] = system: PC-3 cells; test: 3H-thymidine uptake (DNA synthesis) in PC-3 cells; assay type: cell-based, human; conditions: for inhibition at 1 µM / inhibition at 10 µM / inhibition at 20 µM / inhibition at 40 µM / inhibition at 100 µM: Homo sapiens, read-out: % Inhibition of PC3 Cells; for inhibition at 1 µM: PC-3, 1 μM; for inhibition at 10 µM: PC-3, 10 μM; for inhibition at 20 µM: PC-3, 20 μM; for inhibition at 40 µM: PC-3, 40 μM; for inhibition at 100 µM: PC-3, 100 μM; for effect on DNA synthesis (in words): dosages tested 1-100 μM
Procedure: The novel sodium channel blockers were assayed for activity against paired sets of cell lines with increasing metastatic potential, PC-3 and PC-3M (already androgen independent, AI), or increasing metastatic potential with increasing androgen independence, LNCaP and C4-2. DU145 was also included to provide another AI cell line with intermediate tumorigenicity between the LNCaP series and the PC-3 derivatives. This strategy allows an examination of at least three different genotypes for comparison of drug efficacy. […] The first assay used to screen these compounds was 3H-thymidine uptake in PC-3 cells. The cells were trypsinized, equal cell numbers were placed into each well and allowed to recover overnight.

[12] = molecular target: Nav1.5 (Homo sapiens, UniProt Q14524); test: Electrophysiology, sodium currents in CHO cells stably expressing Nav1.5
[13] = system: sodium channel (BTX site 2); test: 3H-BTX-B binding inhibition; conditions: for IC50: 3H-BTX-B Inhibition Data
From the text: One assay used to screen compounds for modulators of sodium channel activity, is based on the use of the radioligand 3-[H]-BTX-B assay. BTX binds to site 2 on the channel protein and thus compounds that can compete with or inhibit BTX binding to the sodium channel are potential sodium channel inhibitors. This assay represents a facile tool to prescreen sodium channel binding before evaluating compounds in more rigorous functional assays such as through electrophysiology.

[14] = system: MAT-LyLu cells; conditions: 6 µM; cited from earlier work
[15] = system: PC-3 cells; conditions: cited from earlier work

Chain of Nav1.5 (Q14524 whole entry): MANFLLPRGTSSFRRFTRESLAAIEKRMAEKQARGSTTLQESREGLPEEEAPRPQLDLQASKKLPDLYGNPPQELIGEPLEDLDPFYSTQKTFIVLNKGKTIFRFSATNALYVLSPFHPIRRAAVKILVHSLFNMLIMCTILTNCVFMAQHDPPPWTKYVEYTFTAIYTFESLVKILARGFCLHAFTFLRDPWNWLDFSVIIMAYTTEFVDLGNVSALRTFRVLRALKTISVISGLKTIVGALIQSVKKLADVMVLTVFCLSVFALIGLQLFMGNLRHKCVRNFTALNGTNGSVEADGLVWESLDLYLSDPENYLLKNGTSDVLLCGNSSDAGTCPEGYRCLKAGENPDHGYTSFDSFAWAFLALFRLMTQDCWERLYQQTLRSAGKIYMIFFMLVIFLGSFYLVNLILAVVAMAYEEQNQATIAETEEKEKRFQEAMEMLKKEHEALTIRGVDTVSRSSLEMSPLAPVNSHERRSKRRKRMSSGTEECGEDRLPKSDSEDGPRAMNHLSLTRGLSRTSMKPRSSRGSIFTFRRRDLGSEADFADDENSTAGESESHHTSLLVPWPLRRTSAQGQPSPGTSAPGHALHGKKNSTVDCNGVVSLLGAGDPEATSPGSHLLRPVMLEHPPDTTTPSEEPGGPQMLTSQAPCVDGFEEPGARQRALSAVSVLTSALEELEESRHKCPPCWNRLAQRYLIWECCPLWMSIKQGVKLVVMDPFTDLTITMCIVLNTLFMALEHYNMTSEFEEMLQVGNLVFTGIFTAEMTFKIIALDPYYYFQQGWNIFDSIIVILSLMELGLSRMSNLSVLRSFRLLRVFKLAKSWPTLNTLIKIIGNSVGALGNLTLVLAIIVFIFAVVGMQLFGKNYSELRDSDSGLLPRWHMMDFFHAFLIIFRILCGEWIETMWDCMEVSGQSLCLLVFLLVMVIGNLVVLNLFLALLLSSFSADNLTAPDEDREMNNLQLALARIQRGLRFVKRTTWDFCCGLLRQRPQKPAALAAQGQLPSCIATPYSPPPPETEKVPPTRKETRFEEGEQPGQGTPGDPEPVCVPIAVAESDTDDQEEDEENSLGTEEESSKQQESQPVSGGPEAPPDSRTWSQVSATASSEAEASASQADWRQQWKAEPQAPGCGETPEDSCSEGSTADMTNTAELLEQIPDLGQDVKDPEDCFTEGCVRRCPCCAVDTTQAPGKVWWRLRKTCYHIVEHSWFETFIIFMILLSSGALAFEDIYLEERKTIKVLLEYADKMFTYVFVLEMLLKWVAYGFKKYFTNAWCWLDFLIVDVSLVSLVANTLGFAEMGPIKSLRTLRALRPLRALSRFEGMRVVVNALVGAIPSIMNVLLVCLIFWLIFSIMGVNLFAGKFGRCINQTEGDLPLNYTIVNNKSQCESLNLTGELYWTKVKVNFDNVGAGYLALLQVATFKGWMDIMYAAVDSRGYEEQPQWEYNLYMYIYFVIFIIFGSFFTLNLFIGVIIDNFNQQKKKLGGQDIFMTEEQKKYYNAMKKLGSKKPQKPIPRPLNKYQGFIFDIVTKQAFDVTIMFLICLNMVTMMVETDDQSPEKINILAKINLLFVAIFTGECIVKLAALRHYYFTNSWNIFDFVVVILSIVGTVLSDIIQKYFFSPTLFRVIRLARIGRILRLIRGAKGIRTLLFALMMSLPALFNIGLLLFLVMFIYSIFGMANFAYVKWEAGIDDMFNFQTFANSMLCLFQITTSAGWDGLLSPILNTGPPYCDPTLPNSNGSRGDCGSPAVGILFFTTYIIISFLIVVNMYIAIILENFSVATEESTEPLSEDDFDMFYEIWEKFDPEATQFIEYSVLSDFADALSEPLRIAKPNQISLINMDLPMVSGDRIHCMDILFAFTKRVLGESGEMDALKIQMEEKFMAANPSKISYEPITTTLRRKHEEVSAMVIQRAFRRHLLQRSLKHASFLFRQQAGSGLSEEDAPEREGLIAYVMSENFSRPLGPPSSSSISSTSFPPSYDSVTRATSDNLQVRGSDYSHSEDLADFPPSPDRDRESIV

| SMILES | IC50 [1] [µM] | IC50 [2] [µM] | IC50 [7] [µM] | IC50 [8] [µM] | decrease of PSA secretion on a per cell basis [9] [%] | IC50 [10] [µM] | inhibition at 1 µM [11] [%] | inhibition at 10 µM [11] [%] | inhibition at 20 µM [11] [%] | inhibition at 40 µM [11] [%] | inhibition at 100 µM [11] [%] | effect on DNA synthesis (in words) [11] | EC50 [12] [µM] | other results |
| --- | --- | --- | --- | --- | --- | --- | --- | --- | --- | --- | --- | --- | --- | --- |
| CCCCCCCC(O)(C(N)=O)c1cccc(Cl)c1 (stereo not shown) [Compound 1] | 51.3 ± 0.2 | 72.2 ± 0.1 | 61.9 ± 0.1 | 56 ± 0.7 | 42.5 | 66 ± 0.7 |  |  |  |  |  |  |  | growth of C4-2 cells (in words) [1]: remarkable inhibition of growth; Number of mice with impaired balance on the rotating rod/total # of animals tested ([3]; 30 mg/kg i.p., 0.5 hours): 0/4; Number of mice with impaired balance on the rotating rod/total # of animals tested ([3]; 30 mg/kg i.p., 4.0 hours): 0/2; Number of mice with impaired balance on the rotating rod/total # of animals tested ([3]; 100 mg/kg i.p., 0.25 hours): 0/4^a; Number of mice with impaired balance on the rotating rod/total # of animals tested ([3]; 100 mg/kg i.p., 0.5 hours): 1/8; Number of mice with impaired balance on the rotating rod/total # of animals tested ([3]; 100 mg/kg i.p., 1.0 hours): 1/8; Number of mice with impaired balance on the rotating rod/total # of animals tested ([3]; 300 mg/kg i.p., 0.5 hours): 3/4; Number of mice with impaired balance on the rotating rod/total # of animals tested ([3]; 300 mg/kg i.p., 4.0 hours): 0/2; tolerated dose ([3]; mice, i.p., acute): up to 300 mg/kg; inhibition in 2-D growth assays [4]: 66.3%; inhibition in 3-D growth (SACF) as compared to phenytoin [5]: approximately 87.2%; cells' growth, % of controls (maximum inhibition) ([6]; normalized to day 7 DMSO control): 20-25 % of controls; IC50 ([9]; Homo sapiens, C4-2, dose-response curve, read-out: IC50 for reducing PSA): ~10 µM |
| CCCCCCCC(O)(C(N)=O)c1ccc(Cl)cc1 (stereo not shown) [Compound 2] | 61.1 ± 0.1 | 64.1 ± 4.3 | 50 | 67.2 ± 0.1 | 41.8 | 66.8 ± 1.2 | -3.61 | 25.2 | 44.6 | 48.9 | 96.2 | inhibited DNA synthesis better than phenyloin at all dosages tested | 12.7 ± 2.7 | inhibition in 2-D growth assays [4]: 42.3%; inhibition of 3H-BTX-B binding in comparison to phenytoin [13]: effective inhibition; enhanced inhibition using SACF, % of phenytoin [5]: 41.5 % of phenyloin; inhibition in 3-D growth (SACF) as compared to phenytoin [5]: ~62% |
| CCCCCCCC(O)(C(N)=O)c1ccc(F)cc1 (stereo not shown) [Compound 9] |  |  |  |  |  |  |  |  |  |  |  |  | 34.2 ± 7.4 |  |
| CCCCCCCC1(c2ccccc2)NC(=O)NC1=O (stereo not shown) [Compound 44] | 67.4 ± 1.3 | 71.8 ± 1.8 | 58.4 | 35.6 ± 2.6 | 14.9 | 66 ± 0.1 | 12.8 | 26.6 | 32.7 | 55 | 82 | inhibited DNA synthesis better than phenyloin at all dosages tested | 29.8 ± 4.2 | % Inhibition of PC3 Cells ([11]; 40 μM): 55.09%; inhibition of 3H-BTX-B binding in comparison to phenytoin [13]: effective inhibition; IC50 [13]: 5 ± 1 µM; selectivity of growth inhibition (in words) ([6]; long-term growth assay): cell selective inhibition of growth |
| NC1=N[C@H](O)[C@H]2[C@H]3O[C@]4(O)O[C@@H]([C@@H](O)[C@@]2(N1)[C@@H]4O)[C@]3(O)CO [TTX, Tetrodotoxin] |  |  |  |  |  |  |  |  |  |  |  |  |  | inhibition of invasiveness of MAT-LyLu cells in vitro [14]: up to 50%; reduction of invasiveness of PC-3 cells [15]: 31% |
| CCN(CC)CC(=O)Nc1c(C)cccc1C [lidocaine, reference compound] |  |  |  |  |  |  |  |  |  |  |  |  |  | growth of C4-2 cells (in words) [1]: mildly stimulatory |
| O=C1NC(=O)C(c2ccccc2)(c2ccccc2)N1 [phenytoin, reference compound] |  |  |  |  |  |  | -23.8 | -13.9 | -21.8 | -12.5 | 30.8 | stimulatory | > 200 | IC50 [13]: 40 µM; inhibition of SACF compared to the DMSO/EtOH control plates [5]: 25.7%; inhibition at 100 µM ([9]; Homo sapiens, C4-2, 100 μM): 17.8% |
